These results are taken from US20250154198A1, “PEPTIDE INHIBITORS OF INTERLEUKIN-23 RECEPTOR” (Zealand Pharma A/S, priority 2021, published 2025).

Where two headings read alike, the source gives them in different places. *1 amine or outer side, *2 acyl side, *3 side chain or, on linkers, in order; H or OH if unused. Where a SMILES comes first, the peptide text is derived from it. Bridges are numbered along the chain shown (N, C = ends). [ ]: non-standard residue; d: D form. Phe(4-NH2) = Nc1ccc(C[C@H](N)C(=O)O)cc1; 2Nal = N[C@@H](Cc1ccc2ccccc2c1)C(=O)O; AEF = NCCOc1ccc(C[C@H](N)C(=O)O)cc1; αMeL = CC(C)C[C@](C)(N)C(=O)O; CH2COCH2 = O=C(C[*:1])C[*:2]; 3Amb = NCc1cccc(C(=O)O)c1

One data set concerns the target T1, human IL-23R (Homo sapiens, UniProt Q5VWK5).
T1 construct: UniProtKB—Q5VWK5, amino acids 22-629; secretion signal of the plasmid (Promega N1371); expressed in transfected cells
T1 sequence (Q5VWK5 22-629): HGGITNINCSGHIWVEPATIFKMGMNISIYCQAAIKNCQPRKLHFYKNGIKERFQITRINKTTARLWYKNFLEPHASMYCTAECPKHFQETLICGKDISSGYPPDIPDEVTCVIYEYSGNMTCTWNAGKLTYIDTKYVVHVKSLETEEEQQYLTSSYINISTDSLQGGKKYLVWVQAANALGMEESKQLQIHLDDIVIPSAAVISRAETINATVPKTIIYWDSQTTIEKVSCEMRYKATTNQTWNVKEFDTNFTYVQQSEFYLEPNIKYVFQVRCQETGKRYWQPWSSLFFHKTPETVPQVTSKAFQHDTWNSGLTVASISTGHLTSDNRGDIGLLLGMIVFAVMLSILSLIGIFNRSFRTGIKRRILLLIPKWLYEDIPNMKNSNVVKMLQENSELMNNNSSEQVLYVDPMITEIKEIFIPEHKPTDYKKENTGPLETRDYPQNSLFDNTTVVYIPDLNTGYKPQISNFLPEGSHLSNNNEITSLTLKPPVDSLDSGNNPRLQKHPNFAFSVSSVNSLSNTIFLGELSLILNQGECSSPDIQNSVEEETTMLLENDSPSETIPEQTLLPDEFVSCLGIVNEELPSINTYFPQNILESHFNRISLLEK
Nature of the data set: Binding assay (NanoBRET displacement of fluorophore-labelled reference compound) for estimating binding affinity to human IL-23R. The settings on record: for IL-23R inhibitory activity (in words): with reference to Ki and IC50 data of the Examples.

The target in data set [1] is IL-23 mediated phospho-STAT3 formation in DB cells (Homo sapiens, UniProt Q5VWK5). In words: Functional inhibition of IL-23 mediated STAT3 signalling (phospho-STAT3 Tyr705 MSD) in DB cells. It is filed as cell-based. The settings on record: DB cells, read-out: IC50 (pSTAT3). An outline of the steps:
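DB cells preincubated 15 min with compound at 37° C, then stimulated 90 min with hIL-23 at EC80. Lysate phospho-STAT3 measured by MSD, normalized to IL-23-alone and buffer wells; IC50 and maximal % inhibition from 4PL fit.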

Data set [2] can be described thus: Peptide stability in simulated intestinal fluid (SIF). The settings on record: pig, Table 3-2, porcine pancreatin, pH 6.8, 37° C., 10 μM; for remaining at 1 h, 10 μM: read-out: SIF (% remaining 1 h); for remaining at 4 h, 10 μM: read-out: SIF (% remaining 4 h). Type of data set: in vitro ADME. An outline of the steps:
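Peptides incubated at 37°C with gentle shaking in SGF (NaCl, HCl, pH 1.2) or SIF (phosphate pH 6.8 with 10 g/L porcine pancreatin). Samples analysed by LC-HRMS; percent remaining at each timepoint calculated from absolute peak areas relative to time zero.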

Data set [3] can be described thus: Peptide stability in simulated gastric fluid (SGF). Type of data set: in vitro ADME. The settings on record: pig, Table 3-3, porcine pepsin, pH 1.2, 37° C., 10 μM; for remaining at 1 h, 10 μM: read-out: SGF (% remaining 1 h); for remaining at 4 h, 10 μM: read-out: SGF (% remaining 4 h). On the procedure:
Determination of Peptide Stability in Simulated Gastric Fluid (SGF) and Simulated Intestinal Fluid (SIF)
SGF was prepared by dissolving sodium chloride (0.2 g) in 50 mL of water. A volume of 0.7 mL of 10 M HCl was added to adjust the pH of the solution to 1.2 and the volume made up to 100 mL with water. […] SIF was prepared by dissolving monobasic potassium phosphate (0.68 g) in 50 mL of water and adjusting the pH to 6.8 with 1 M NaOH. The volume was subsequently made up to 100 mL with water. 200 mg porcine pancreatin (P1625, Sigma Aldrich) was gently dissolved into 20 mL preheated (37° C.) solution (10 g/L) immediately prior to the incubation.
The incubation was performed at 37° C. with gentle shaking. […] After the last timepoint, the sampling plate was mixed for 10 min on a shaking table and centrifuged 10 min at 2200 g. 70 μL resulting supernatant was diluted with 150 μL water, mixed and centrifugated before analysis by liquid chromatography high resolution mass spectrometry. […] Percent remaining at each timepoint was calculated relative to timepoint zero based on absolute peak areas.

[4] abbreviates: Table 3-1, read-out: Ki hIL-23R.
Setting [5] is: simulated intestinal fluid (SIF) with porcine pancreatin.
Where [6] appears, read: simulated gastric fluid (SGF) with porcine pepsin.

Consider `CC(=O)N[C@@H](CC(=O)O)C(=O)N[C@H]1CCC(=O)NCCCC[C@@H](C(=O)N[C@@H](CCCNC(=N)N)C(N)=O)NC(=O)[C@H](CC(C)C)NC(=O)[C@H](Cc2c[nH]c3ccccc23)NC(=O)[C@H](Cc2c[nH]c3ccccc23)NC(=O)[C@@H]2CSCC(=O)CSC[C@H](NC(=O)[C@H](CO)NC1=O)C(=O)N[C@@H](Cc1c[nH]c3ccccc13)C(=O)N2` [Ref 6, [Ac]-DE(1c)SC(2a)WC(2a)WWLK(1c)R-[NH2], reference compound] (HELM PEPTIDE1{[ac].D.E.S.C.W.C.W.W.L.K.R.[am]}|CHEM1{[O=C(C[*:1])C[*:2]]}$PEPTIDE1,PEPTIDE1,3:R3-11:R3|PEPTIDE1,CHEM1,5:R3-1:R1|PEPTIDE1,CHEM1,7:R3-1:R2$$$V2.0), for which the Ki on human IL-23R (setting [4]) is over 1000 nM. Besides, the “IL-23R inhibitory activity (in words)” value on human IL-23R was “inactive”. Further, the concentration for half-maximal inhibition (IC50) in data set [1] (Table 3-1) is over 1000 nM. In data set [2] (setting [5]), the fraction remaining at 1 h, 10 μM was 0% and the amount remaining at 4 h, 10 μM is 0%. In data set [3] (setting [6]), the amount remaining at 1 h, 10 μM is 0% and the amount remaining at 4 h, 10 μM was 0%.
As for `CC(C)C[C@]1(C)NC(=O)[C@H](Cc2ccc3ccccc3c2)NC(=O)[C@H](Cc2ccc(OCCN)cc2)NC(=O)[C@@H]2CSCC(=O)CSC[C@H](NC(=O)[C@H](CO)NC(=O)c3cccc(c3)CNC(=O)CC[C@@H](C(=O)N[C@@H](Cc3ccc(N)cc3)C(N)=O)NC1=O)C(=O)N[C@@H](Cc1c[nH]c3ccccc13)C(=O)N[C@@H](CCC(N)=O)C(=O)N2` [Compound 45, [(3-Aminomethyl)benzoyl](1c)*SC(2a)WQC(2a)[Y(2-aminoethoxy)][2-Nal][2-Me-Leu]E(1c)[F(4-NH2)]-[NH2]] ([3Amb]SCWQC[AEF][2Nal][αMeL]E[Phe(4-NH2)]-NH2; linker 3-6 via CH2COCH2; lactam N-10), the Ki on human IL-23R (setting [4]) is 12 nM. Further, in data set [2] (setting [5]), the amount remaining at 4 h, 10 μM was 34%. Moreover, in data set [3] (setting [6]), the share remaining at 1 h, 10 μM was 76% and the share remaining at 4 h, 10 μM was 84%.
Take `CC(=O)N[C@@H](CC(=O)O)C(=O)N[C@H]1CCC(=O)NCCCC[C@@H](C(=O)N[C@@H](CCCNC(=N)N)C(N)=O)NC(=O)[C@H](CC(C)C)NC(=O)[C@H](Cc2c[nH]c3ccccc23)NC(=O)[C@H](Cc2c[nH]c3ccccc23)NC(=O)[C@@H]2CSCC(=O)CSC[C@H](NC1=O)C(=O)N[C@@H](Cc1c[nH]c3ccccc13)C(=O)N[C@@H](CCC(N)=O)C(=O)N2` [Ref 5, [Ac]-DE(1c)C(2a)WQC(2a)WWLK(1c)R-[NH2], reference compound] (HELM PEPTIDE1{[ac].D.E.C.W.Q.C.W.W.L.K.R.[am]}|CHEM1{[O=C(C[*:1])C[*:2]]}$PEPTIDE1,PEPTIDE1,3:R3-11:R3|PEPTIDE1,CHEM1,4:R3-1:R1|PEPTIDE1,CHEM1,7:R3-1:R2$$$V2.0): the Ki on human IL-23R (setting [4]) was over 1000 nM. The “IL-23R inhibitory activity (in words)” value at human IL-23R was “inactive”. For the same molecule, the IC50 in data set [1] (Table 3-1) is over 1000 nM. Further, in data set [2] (setting [5]), the share remaining at 1 h, 10 μM was 0% and the amount remaining at 4 h, 10 μM was 0%. Besides, in data set [3] (setting [6]), the fraction remaining at 1 h, 10 μM is 1% and the share remaining at 4 h, 10 μM is 0%.
On to `CC(C)C[C@@H]1NC(=O)[C@H](Cc2c[nH]c3ccccc23)NC(=O)[C@H](Cc2c[nH]c3ccccc23)NC(=O)[C@@H]2CSCC(=O)CSC[C@H](NC(=O)[C@H](CO)NC(=O)[C@@H](NC(=O)[C@@H](N)CC(C)C)CSCC(=O)CSC[C@@H](C(=O)N[C@@H](CCCNC(=N)N)C(N)=O)NC1=O)C(=O)N[C@@H](Cc1c[nH]c3ccccc13)C(=O)N[C@@H](CCC(N)=O)C(=O)N2` [Compound 2, H-LC(1a)SC(2a)WQC(2a)WWLC(1a)R-[NH2]] (HELM PEPTIDE1{L.C.S.C.W.Q.C.W.W.L.C.R.[am]}|CHEM1{[O=C(C[*:1])C[*:2]]}|CHEM2{[O=C(C[*:1])C[*:2]]}$PEPTIDE1,CHEM1,2:R3-1:R1|PEPTIDE1,CHEM1,11:R3-1:R2|PEPTIDE1,CHEM2,4:R3-1:R1|PEPTIDE1,CHEM2,7:R3-1:R2$$$V2.0), for which, at human IL-23R, the inhibition constant Ki is 32.3 nM. In addition, the amount remaining at 1 h, 10 μM in data set [2] is 0%; in data set [3], 6%. The share remaining at 4 h, 10 μM in data set [2] is 0%; in data set [3] it was 1%.
On to `CC(C)C[C@]1(C)NC(=O)[C@H](Cc2ccc3ccccc3c2)NC(=O)[C@H](Cc2ccc(OCCN)cc2)NC(=O)[C@@H]2CSCC(=O)CSC[C@H](NC(=O)[C@H](CO)NC(=O)c3cccc(c3)CNC(=O)CC[C@@H](C(=O)N[C@@H](CO)C(N)=O)NC1=O)C(=O)N[C@@H](Cc1c[nH]c3ccccc13)C(=O)N[C@@H](CCC(N)=O)C(=O)N2` [Compound 44, [(3-Aminomethyl)benzoyl](1c)*SC(2a)WQC(2a)[Y(2-aminoethoxy)][2-Nal][2-Me-Leu]E(1c)S-[NH2]], for which the inhibition constant Ki at human IL-23R (setting [4]) is 4.87 nM. For the same molecule, the share remaining at 1 h, 10 μM in data set [2] (setting [5]) was 79%. For the same molecule, the amount remaining at 4 h, 10 μM in data set [3] (setting [6]) is 73%.
Regarding `CC(=O)N[C@@H](CC(=O)O)C(=O)N[C@H]1CCCCNC(=O)CC[C@@H](C(=O)N[C@@H](CCCNC(=N)N)C(N)=O)NC(=O)[C@H](CC(C)C)NC(=O)[C@H](Cc2c[nH]c3ccccc23)NC(=O)[C@H](Cc2c[nH]c3ccccc23)NC(=O)[C@@H]2CSCC(=O)CSC[C@H](NC(=O)[C@H](CO)NC1=O)C(=O)N[C@@H](Cc1c[nH]c3ccccc13)C(=O)N[C@@H](CCC(N)=O)C(=O)N2` [Compound 7, [Ac]-DK(1c)SC(2a)WQC(2a)WWLE(1c)R-[NH2]] (HELM PEPTIDE1{[ac].D.K.S.C.W.Q.C.W.W.L.E.R.[am]}|CHEM1{[O=C(C[*:1])C[*:2]]}$PEPTIDE1,PEPTIDE1,3:R3-12:R3|PEPTIDE1,CHEM1,5:R3-1:R1|PEPTIDE1,CHEM1,8:R3-1:R2$$$V2.0), at human IL-23R (Compound 7 (amide closer to position 11) versus Compound 4 (closer to position 2), Table 2-3b), the “potency depending on location of the amide bond in the [2,11] lactam bridge (in words)” value is on record as “more active”. For the same molecule, the Ki on human IL-23R (Table 2-3b, read-out: Ki IL-23R) is 26.8 nM. Further, the IC50 in data set [1] (Table 2-3b) was found to be 159 nM. Moreover, in data set [2] (setting [5]), the amount remaining at 1 h, 10 μM is 0% and the amount remaining at 4 h, 10 μM is 0%. In data set [3] (setting [6]), the amount remaining at 1 h, 10 μM was 0% and the share remaining at 4 h, 10 μM is 0%.
Take `CC(C)C[C@@H]1NC(=O)[C@H](Cc2ccc3ccccc3c2)NC(=O)[C@H](Cc2ccc(OCCN)cc2)NC(=O)[C@@H]2CSCC(=O)CSC[C@H](NC(=O)[C@H](CO)NC(=O)c3cccc(c3)CNC(=O)CC[C@@H](C(=O)N[C@@H](CCCNC(=N)N)C(N)=O)NC1=O)C(=O)N[C@@H](Cc1c[nH]c3ccccc13)C(=O)N[C@@H](CCC(N)=O)C(=O)N2` [Compound 39, [(3-Aminomethyl)benzoyl](1c)*SC(2a)WQC(2a)[Y(2-aminoethoxy)][2-Nal]LE(1c)R-[NH2]] ([3Amb]SCWQC[AEF][2Nal]LER-NH2; linker 3-6 via CH2COCH2; lactam N-10): on human IL-23R (setting [4]), the Ki was 1.4 nM. For the same molecule, in data set [2] (setting [5]), the share remaining at 1 h, 10 μM is 0% and the share remaining at 4 h, 10 μM is 0%. Further, the amount remaining at 1 h, 10 μM in data set [3] (setting [6]) was 90%.
